From patent publication US6908922B2, “Linear cyclic ureas” (Les Laboratoires Servier, priority 1999, dated 2005)

Assays:
Type in all cases: cell-based
[1] = system: rat aortic rings; experiment: Assessment of aortic production of cGMP stimulated by ACh in the presence of LNA (radioimmunoassay); settings: compound at 10^−7M, 30-minute incubation; ACh 10^−5M 1 minute; LNA 3×10^−6M; isobutylmethylxanthine 10^−5M
Procedure: By diffusing to the smooth muscle cells, the NO produced by the endothelial cells activates soluble guanylate cyclase, which brings about an increase in cyclic GMP, which is responsible for relaxation.
The rat aortic rings are prepared as previously. The effects of 30-minute incubation of compounds of the invention at different concentrations are assessed on the production of cGMP stimulated by ACh (10^−5M-1 minute) in the presence of LNA (3×10^−6M). The said experiments are carried out in the presence of isobutylmethylxanthine (10^−5M) in order to avoid degradation of the cGMP by phosphodiesterases. The rings are frozen in liquid nitrogen and maintained at −80° C. until the assay is carried out. The cGMP content is assessed by radioimmunoassay and expressed in relation to the amount of proteins contained in the tissue (assay by the Bradford method).

[2] = system: thoracic aorta rings of a Wistar rat; experiment: Vascular protective effects with respect to endothelial dysfunction caused by an inhibitor of NOS (ACh relaxation of aortic rings in presence of LNA); settings: LNA 3×10^−7M, difference in maximum ACh relaxation with/without product
Procedure: Under standard in vitro conditions, relaxation of aortic rings caused by acetylcholine (ACh), which relaxation is entirely dependent on the presence of endothelium, is the reflection of the production of NO (stimulated by ACh), which by diffusing to smooth muscle cells brings about arterial relaxation (Nature, 1980, 288, 373). The compounds of the invention were tested in respect of two models involving two different mechanisms implicated in the endothelial dysfunction observed in pathology: • the first model consists of causing inhibition of the relaxation due to ACh by blocking the enzymatic activity (endothelial NOS) responsible for the production of NO; • the second model consists of causing oxidative stress in vitro using an enzymatic system that generates O2^− (xanthine oxidase—XO and hypoxanthine—Hypo).
The thoracic aorta of a Wistar rat (325-375 g), anaesthetised by the intraperitoneal route using pentobarbital sodium (30 mg/kg), is removed and dissected into rings having a length of 3 mm. Each ring is suspended from an isometric tension sensor connected to a recording system and the initial tension applied is 2.5 g. The physiological solution used, which is thermostatically maintained at 37° C. and oxygenated (95% O2+5% CO2), comprises (in mM): NaCl 112.0; KCl 5.0; CaCl2 2.5; KH2PO4 1.0; MgSO4 1.2; NaHCO3 25.0; glucose 11.5; Ca-EDTA 0.016.
After a 90-minute stabilisation period, the preparations are contracted using phenylephrine (PHE 10^−6M) and relaxed by adding 10^−5M of acetylcholine in order to verify the integrity of the endothelial layer. If that is confirmed, the preparations are rinsed and a concentration of the product under test is added to the medium followed by 3×10^−7M of N^G-nitro-L-arginine (LNA). The preparations are again contracted using phenylephrine and, after 30 minutes, the relaxations due to acetylcholine (ACh-10^−8M to 10^−5M) are assessed in the presence of indomethacin (10^−5M).
The relaxation values are expressed as a percentage relative to the maximum contraction caused by PHE. […]

[3] = system: aortic rings of New Zealand rabbits; experiment: Protective vascular effects with respect to endothelial dysfunction caused by a system generating O2^− (XO-Hypo), aortic rings; settings: compound at 3×10^−8M; rabbit aortic rings; XO 3 mU/ml, Hypo 10^−4M

Compound: O=C(NCCN1CCC(COc2ccccc2)CC1)N1CCc2ccccc21 [Example 35, N-{2-[4-(Phenoxymethyl)-1-piperidyl]ethyl}-1-indolinecarboxamide]
- increase in the production of cGMP stimulated by ACh in the presence of LNA [1]: 28.1%
- inhibition of the endothelial dysfunction caused by LNA ([2]; compound at 3×10^−8M): 26%
- inhibition of the endothelial dysfunction caused by LNA ([2]; compound at 10^−7M): 29%
- inhibition of the endothelial dysfunction caused by LNA ([2]; compound at 10^−8M): 8%
- inhibition of the endothelial dysfunction caused by the XO-Hypo combination [3]: 17%
